Data: patent US20110230465A1, “VIRAL POLYMERASE INHIBITORS” (BOEHRINGER INGLEHEIM INTERNATIONAL GMBH, priority 2009, published 2011)

Columns and labels:
[1] = tested on: HCV RNA replication in Huh-7 cells with a stable subgenomic HCV replicon (MP-1 cells); assay: microbe, parasite or virus in culture; format: cell-based; settings: Hepatitis C virus, assay of Example 159A, read-out: EC50 (nM) Ex 159A (converted)
[2] = target: T1, hepatitis C virus RNA dependent polymerase (NS5B) (Hepatitis C virus genotype 1b, UniProt P26663); assay: Inhibition of NS5B RNA dependent RNA polymerase activity; format: biochemical; settings: assay of Example 158A; read-out: IC50 (nM) Ex 158A (converted)
T1 construct: the RNA dependent RNA polymerase of HCV, specifically, the enzyme NS5B encoded by HCV
Experimental: Inhibition of NS5B RNA Dependent RNA Polymerase Activity
Representative compounds of the invention are tested for inhibitory activity against the hepatitis C virus RNA dependent polymerase (NS5B), using the assay described in WO2009/018657, herein incorporated by reference.

T1 sequence (P26663 2420-3010): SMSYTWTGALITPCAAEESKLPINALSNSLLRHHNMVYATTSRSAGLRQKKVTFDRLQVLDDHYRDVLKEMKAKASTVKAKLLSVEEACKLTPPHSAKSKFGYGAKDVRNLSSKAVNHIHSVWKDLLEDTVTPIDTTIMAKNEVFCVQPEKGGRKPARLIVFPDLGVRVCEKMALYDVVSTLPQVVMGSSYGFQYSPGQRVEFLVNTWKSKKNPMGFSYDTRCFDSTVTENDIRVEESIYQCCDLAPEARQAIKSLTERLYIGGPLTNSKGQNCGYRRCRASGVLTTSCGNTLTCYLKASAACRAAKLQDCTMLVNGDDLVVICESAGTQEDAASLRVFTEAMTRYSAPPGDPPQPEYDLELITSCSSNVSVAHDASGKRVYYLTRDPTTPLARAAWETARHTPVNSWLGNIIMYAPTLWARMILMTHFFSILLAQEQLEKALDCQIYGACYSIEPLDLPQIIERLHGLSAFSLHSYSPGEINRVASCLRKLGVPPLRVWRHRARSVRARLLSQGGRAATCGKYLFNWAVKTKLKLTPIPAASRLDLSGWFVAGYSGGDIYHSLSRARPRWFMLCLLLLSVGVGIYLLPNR

| Structure (SMILES) | EC50 [1] | IC50 [2] |
| --- | --- | --- |
| Cc1ccc(Cn2cnc(=O)c3cc(Oc4ncccc4C(F)(F)F)ccc32)c(-c2ccsc2)c1 [Compound 3052] | 210 nM | 110 nM |
| O=c1ncn(Cc2ccc(F)cc2F)c2ccc(Oc3ncc(Cn4nccn4)cc3C(F)(F)F)cc12 [Compound 5001] | 470 nM | 240 nM |
| N#Cc1cc(-c2cccc(Oc3ccc4c(c3)c(=O)ncn4Cc3c(F)cc(F)cc3F)c2C(F)(F)F)cnc1N [Compound 9026] | – | 28 nM |
| CCc1nc(=O)c2cc(Oc3ncccc3C(F)(F)F)ccc2n1-c1cccnc1-c1ccc(C)cc1F [Compound 8011] | 4800 nM | 34500 nM |
| O=c1ncn(Cc2c(F)cc(F)cc2F)c2ccc(Oc3ncc(Cc4nn[nH]n4)cc3C(F)(F)F)cc12 [Compound 4020] | 5400 nM | 78 nM |
| Cc1ccc(-c2ncccc2-n2cnc(=O)c3cc(Oc4ncccc4C(F)(F)F)ccc32)cc1 [Compound 3090] | 82 nM | 130 nM |
| Cc1ncccc1NC(=O)c1ccc(Oc2ccc3c(c2)c(=O)ncn3Cc2c(F)cc(F)cc2F)c(C(F)(F)F)c1 [Compound 6047] | 10 nM | 15 nM |
| COCCOc1ccnc(Oc2ccc3c(c2)c(=O)ncn3Cc2c(F)cc(F)cc2F)c1C(F)(F)F [Compound 4003] | 61 nM | 67 nM |
| O=c1ncn(Cc2c(F)cc(F)cc2F)c2ccc(Oc3cccc(-c4ccc5nonc5c4)c3C(F)(F)F)cc12 [Compound 9020] | 199 nM | 107 nM |
| Cc1nc(-c2cccc(Oc3ccc4c(c3)c(=O)ncn4[C@H](C)c3c(F)cc(F)cc3F)c2C(F)(F)F)ncc1N [Compound 9025] | – | 14 nM |
| C[C@H](c1c(F)cc(F)cc1F)n1cnc(=O)c2cc(Oc3cccc(-c4ccc(N)nc4)c3C(F)(F)F)ccc21 [Compound 9003] | 4 nM | 18 nM |
| Cc1ccc(Cn2cnc(=O)c3cc(Oc4ccc(C(N)=O)cc4)ccc32)c(F)c1 [Compound 1030] | 8500 nM | 610 nM |
| CCNc1ccc(-c2cccc(Oc3ccc4c(c3)c(=O)ncn4[C@H](C)c3c(F)cc(F)cc3F)c2C(F)(F)F)cn1 [Compound 9001] | – | 23 nM |
| CN(C)c1cc2c(cc1Oc1ncccc1C(F)(F)F)c(=O)ncn2Cc1ccc(F)cc1F [Compound 8009] | > 10000 nM | – |
| O=c1ncn(Cc2c(F)cc(F)cc2F)c2ccc(Oc3cccc(-c4cccc5[nH]ccc45)c3C(F)(F)F)cc12 [Compound 9016] | 2.2 nM | 25 nM |
| C[C@H](c1c(F)cc(F)cc1F)n1cnc(=O)c2cc(Oc3cccc(-c4ncc(N)cn4)c3C(F)(F)F)ccc21 [Compound 9011] | – | 7.8 nM |
| NC(=O)Cc1cccc(Oc2ccc3c(c2)c(=O)ncn3Cc2c(F)cc(F)cc2F)c1C(F)(F)F [Compound 6036] | 60 nM | 18 nM |
| CN(C)C(=O)c1cccc(Oc2ccc3c(c2)c(=O)ncn3Cc2c(F)cc(F)cc2F)c1 [Compound 7034] | 5700 nM | 4900 nM |
| O=c1ncn(Cc2c(F)cc(F)cc2F)c2ccc(O[C@H]3CC[C@H](CO)CC3)cc12 [Compound 2061] | 2500 nM | 530 nM |
| Cc1c(-c2cccc(Oc3ccc4c(c3)c(=O)ncn4Cc3c(F)cc(F)cc3F)c2C(F)(F)F)cnn1-c1ccccc1 [Compound 9019] | 183 nM | 51 nM |
